Measured values reported in paper PMC9688344, “[^225Ac]Ac-SibuDAB for Targeted Alpha Therapy of Prostate Cancer: Preclinical Evaluation and Comparison with [^225Ac]Ac-PSMA-617” (Cancers, 2022).

Tested on: immunocompetent FVB mice
Assay: Tolerability study in immunocompetent mice
Format: in vivo
Source text: Five- to six-week-old immunocompetent, female FVB mice were purchased from Charles River Laboratories (Sulzfeld, Germany). After an acclimatization period of at least 7 days, the mice (n = 5 per group) were intravenously injected with 30 kBq [^225Ac]Ac-SibuDAB or 30 kBq [^225Ac]Ac-PSMA-617 and additional mice (n = 7 per group) remained untreated as controls. Mice were monitored by measuring their body mass and potential signs of pain or unease three times a week (Supplementary Material: Section S7). The mice were euthanized on Day 10, Day 28 or on Day 56, respectively, and variable parameters were assessed from blood and tissue samples.
Hematological analysis was performed using blood samples taken by cardiac puncture immediately after euthanasia. Blood and bone marrow smears were prepared and stained using the Pappenheim protocol. The assessment was carried out by a board-certified veterinary anatomic pathologist (AnaPath Services GmbH, Liestal, Switzerland). Blood plasma parameters were determined in plasma after centrifugation of blood samples obtained shortly before euthanasia (Supplementary Material: Section S7).
Tissue sections of formalin-fixed paraffin-embedded (FFPE) spleen, salivary glands and kidneys were prepared and stained with hematoxylin and eosin (H&E) by AnaPath Services GmbH (Liestal, Switzerland). The tissues were analyzed by a board certified veterinary pathologist using a pre-defined scoring system (Supplementary Material: Section S7). […]
The percentage of radioligand bound to mouse or human plasma (A bound) was plotted against the molar ratios of MSA/HSA to radioligand and fitted with a nonlinear regression curve (specific binding with Hill slope, Bmax set to 100%) using GraphPad Prism software (version 8) to obtain the half maximum binding (B 50).
Results: The results are reported in the main article.
Purpose: A tolerability study with normal, immunocompetent FVB mice was con-ducted in order to assess potential side effects to the bone marrow, spleen, salivary glands and kidneys after the application of high activities of the 225Ac-labeled PSMA radioligands.
Methods: Monitoring Body Mass and Signs of Unease: Mice were monitored by meas-uring their body mass (BM) three times a week. The body masses were expressed as the relative body mass, defined as [BMx/BM0], where BMx is the body mass in grams on a given Day x and BM0 is the body mass in grams on Day 0. Endpoint criteria, defined as (i) >15% loss in body mass, (ii) signs of unease and pain or a combination thereof based on a scoring system, were not reached in this stu dy.
Hematology: Blood cell counts were determined in blood samples taken by cardiac puncture immediately after euthanasia and collected in EDTA tubes (Microvette® 100 K3 EDTA, Sarstedt, Germany). Leukocyte, lymphocyte, erythrocyte and thrombocyte counts as well as hemoglobin and hematocrit values were determined using a hematology ana-lyzer (VetScan HM5, Abaxis, United States). Blood smears were prepared on glass slides with cardiac blood. The bone marrow was collected from the femur, diluted in FCS/H2O (2:1 v/v) and smeared onto microscopy slides using a paintbrush. The slides were stained with a May Grünwald solution and subsequently with diluted Giemsa solution using the Pappenheim method and covered with coverslips using mounting medium (Pertex).
The assessment of potential morphological ch anges of the blood cells and counting of the subgroups of leukocytes was performed by a board-certified veterinary pathologist (Ana-Path Services GmbH, Liestal, Switzerland).
Histopathological Analysis: Spleen, salivary glands and kidneys were formalin-fixed and paraffin-embedded. Tissue sections were stained with hematoxylin & eosin (H&E) […]
Blood Plasma Parameters: Blood plasma parameters were determined in plasma ob-tained from centrifuged retrobulbar blood samples collected in lithium-heparin tubes (Mi-crovette® 200 LH, SARSTEDT). The concentrations of blood urea nitrogen (BUN), alkaline […]

CC(C)Cc1ccc(C(C)C(=O)NC(CCN)C(=O)NCCCCC(NC(=O)CN2CCN(CC(=O)[O-])CCN(CC(=O)[O-])CCN(CC(=O)[O-])CC2)C(=O)NCC2CCC(C(=O)NC(Cc3ccc4ccccc4c3)C(=O)NCCCCC(NC(=O)NC(CCC(=O)O)C(=O)O)C(=O)O)CC2)cc1.[225Ac+3] (stereo not shown) [[^225Ac]Ac-SibuDAB]
2: Kidneys: Tubular basophilia, incidence (Day 56, 30 kBq) | Salivary glands: Mononuclear cell foci, incidence (Day 56, 30 kBq)
1.8: Spleen: Extramedullary hematopoiesis, score average (Day 28, 30 kBq) | Spleen: Extramedullary hematopoiesis, score average (Day 56, 30 kBq)
0.0: Salivary glands: Ductal hyperplasia with inflammatory cells, score average (Day 28, 30 kBq) | Salivary glands: Necrosis, multifocal, serous acinar cells, score average (Day 28, 30 kBq) | Salivary glands: Vacuolation, score average (Day 28, 30 kBq) | Kidneys: Hypertrophy/hyperplasia, tubular with ectasia, score average (Day 56, 30 kBq) | Kidneys: Mineralization, papilla, score average (Day 56, 30 kBq) | Salivary glands: Ductal hyperplasia with inflammatory cells, score average (Day 56, 30 kBq) | Salivary glands: Hypertrophy acinar, sublingual, score average (Day 56, 30 kBq) | Salivary glands: Necrosis, multifocal, serous acinar cells, score average (Day 56, 30 kBq) | Salivary glands: Vacuolation, score average (Day 56, 30 kBq) | Spleen: Hyperplasia, lymphoid, score average (Day 56, 30 kBq)
0: Salivary glands: Vacuolation, incidence (Day 28, 30 kBq) | Salivary glands: Necrosis, multifocal, serous acinar cells, incidence (Day 28, 30 kBq, listed as [225Ac]Ac-SibuDAB) | Kidneys: Hypertrophy/hyperplasia, tubular with ectasia, incidence (Day 56, 30 kBq) | Kidneys: Mineralization, papilla, incidence (Day 56, 30 kBq) | Salivary glands: Ductal hyperplasia with inflammatory cells, incidence (Day 56, 30 kBq) | Salivary glands: Hypertrophy acinar, sublingual, incidence (Day 56, 30 kBq) | Salivary glands: Necrosis, multifocal, serous acinar cells, incidence (Day 56, 30 kBq) | Salivary glands: Vacuolation, incidence (Day 56, 30 kBq) | Spleen: Hyperplasia, lymphoid, incidence (Day 56, 30 kBq)
3: Salivary glands: Mononuclear cell foci, incidence (Day 28, 30 kBq)
70%: Bone marrow % M (Day 56, mouse M2)
1.2: Spleen: Hyperplasia, lymphoid, score average (Day 28, 30 kBq)
completely absent: Salivary glands: Necrosis, multifocal, serous acinar cells, incidence (Day 28, 30 kBq)
1.0: Salivary glands: Hypertrophy acinar, sublingual, score average (Day 28, 30 kBq) | Salivary glands: Mononuclear cell foci, score average (Day 28, 30 kBq) | Kidneys: Hyperplasia/hypertrophy, tubular, score average (Day 56, 30 kBq) | Kidneys: Inflammatory cells, interstitium, score average (Day 56, 30 kBq) | Kidneys: Inflammatory cells, pelvis, score average (Day 56, 30 kBq) | Kidneys: Tubular basophilia, score average (Day 56, 30 kBq) | Salivary glands: Mononuclear cell foci, score average (Day 56, 30 kBq)
2.0: Spleen: Pigment, score average (Day 28, 30 kBq) | Spleen: Pigment, score average (Day 56, 30 kBq)
30%: Bone marrow % E (Day 56, mouse M2)
1: Salivary glands: Hypertrophy acinar, sublingual, incidence (Day 28, 30 kBq) | Kidneys: Hyperplasia/hypertrophy, tubular, incidence (Day 56, 30 kBq) | Kidneys: Inflammatory cells, interstitium, incidence (Day 56, 30 kBq) | Kidneys: Inflammatory cells, pelvis, incidence (Day 56, 30 kBq)
60%: Bone marrow % M (Day 28, mouse M1) | Bone marrow % M (Day 28, mouse M3) | Bone marrow % M (Day 56, mouse M1) | Bone marrow % M (Day 56, mouse M3) | Bone marrow % M (Day 56, mouse M4) | Bone marrow % M (Day 56, mouse M5)
50%: Bone marrow % E (Day 28, mouse M2) | Bone marrow % M (Day 28, mouse M2) | Bone marrow % E (Day 28, mouse M4) | Bone marrow % M (Day 28, mouse M4) | Bone marrow % E (Day 28, mouse M5) | Bone marrow % M (Day 28, mouse M5)
5: Spleen: Extramedullary hematopoiesis, incidence (Day 28, 30 kBq) | Spleen: Hyperplasia, lymphoid, incidence (Day 28, 30 kBq) | Spleen: Pigment, incidence (Day 28, 30 kBq) | Spleen: Extramedullary hematopoiesis, incidence (Day 56, 30 kBq) | Spleen: Pigment, incidence (Day 56, 30 kBq)
40%: Bone marrow % E (Day 28, mouse M1) | Bone marrow % E (Day 28, mouse M3) | Bone marrow % E (Day 56, mouse M1) | Bone marrow % E (Day 56, mouse M3) | Bone marrow % E (Day 56, mouse M4) | Bone marrow % E (Day 56, mouse M5)
